The record followed here is patent US12319679B2, “Morpholinyl, piperazinyl, oxazepanyl and diazepanyl O-glycoprotein-2-acetamido-2-deoxy-3-d-glucopyranosidase inhibitors” (BIOGEN MA INC., priority 2018, dated 2025).

pIC50: −log10 of the molar value.

In the experiment the target is T1, Recombinant full length human OGA enzyme (Homo sapiens, UniProt O60502).
T1 construct: Recombinant full length human OGA enzyme was purchased from Origene; purchased Origene
T1 sequence (O60502 1-916): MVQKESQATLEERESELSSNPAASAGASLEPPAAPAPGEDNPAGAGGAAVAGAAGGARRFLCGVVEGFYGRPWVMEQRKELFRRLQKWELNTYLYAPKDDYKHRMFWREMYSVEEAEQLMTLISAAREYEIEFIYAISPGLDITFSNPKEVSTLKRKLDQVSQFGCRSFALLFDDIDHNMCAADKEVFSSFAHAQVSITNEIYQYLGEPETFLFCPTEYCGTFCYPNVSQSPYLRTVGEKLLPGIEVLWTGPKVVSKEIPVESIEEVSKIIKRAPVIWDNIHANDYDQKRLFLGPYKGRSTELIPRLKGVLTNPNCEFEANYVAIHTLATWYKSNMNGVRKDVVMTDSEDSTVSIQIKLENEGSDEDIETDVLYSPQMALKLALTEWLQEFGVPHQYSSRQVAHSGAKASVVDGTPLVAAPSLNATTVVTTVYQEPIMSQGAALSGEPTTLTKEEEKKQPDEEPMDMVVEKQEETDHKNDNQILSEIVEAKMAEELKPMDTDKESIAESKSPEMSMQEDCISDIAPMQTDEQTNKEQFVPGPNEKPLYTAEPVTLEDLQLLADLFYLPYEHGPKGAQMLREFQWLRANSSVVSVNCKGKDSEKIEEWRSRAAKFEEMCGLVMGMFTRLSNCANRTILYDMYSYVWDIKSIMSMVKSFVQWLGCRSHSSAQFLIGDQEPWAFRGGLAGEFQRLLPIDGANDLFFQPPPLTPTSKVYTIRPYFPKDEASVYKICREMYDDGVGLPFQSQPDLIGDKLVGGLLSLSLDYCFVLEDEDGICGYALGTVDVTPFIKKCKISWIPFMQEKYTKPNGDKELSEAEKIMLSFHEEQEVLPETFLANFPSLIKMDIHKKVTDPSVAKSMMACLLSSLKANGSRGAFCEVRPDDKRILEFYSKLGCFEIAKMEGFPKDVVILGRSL
The experiment can be described thus: OGA Enzyme Inhibition Biochemical Assay. As to conditions: 1 nM OGA, 100 μM 4-MUGlcNAc (Km), pH 6.4, 90 minutes at room temperature; 10-point dose-response starting from 20 μM. As for the experimental part:
OGA Enzyme Inhibition Biochemical Assay
Recombinant full length human OGA enzyme was purchased from Origene. 4-MUGlCNAc substrate was purchased from Sigma. All other reagents were purchased from Sigma or Fisher. Assay buffer consists of the McIlvaine buffer system, pH 6.4 (0.2M Na2HPO4 mixed with 0.1M citric acid) and 0.01% BSA. Reactions consist of 1 nM OGA, 100 μM 4-MUGlcNAc (Km), and compound in a final volume of 10 μl. Reactions were incubated for 90 minutes at room temperature and quenched with 40 μl of 3M glycine, pH 10 and read on a Perkin Elmer Envision plate reader (Ex: 355 nm/Em: 460 nm). Compounds were tested with a 10-point dose-response starting from 20 μM with a 4-fold dilution. Data was fit using GraphPad Prism using a 4-paramter fit with variable slope.
The term pIC50 denotes the IC50 on a negative log10 scale, so that one unit is a factor of ten. With `CC(=O)Nc1ncc(CN2C[C@@H](Cc3ncc(F)cn3)O[C@@H](C)C2)s1` (racemic) [Example 1-34, N-(5-(((cis)-2-((5-fluoropyrimidin-2-yl)methyl)-6-methylmorpholino)methyl)thiazol-2-yl)acetamide], the pIC50 is 6.17.
`CC(=O)Nc1ncc(CN2CCCOC(Cc3cc(C)nc(C)c3)C2)s1` (racemic) [Example 1-36, N-(5-((2-((2,6-dimethylpyridin-4-yl)methyl)-1,4-oxazepan-4-yl)methyl)thiazol-2-yl)acetamide]: the pIC50 was 7.24.
Take `CC(=O)Nc1ncc(CN2CCCOC(Cc3ncc(F)cn3)C2)s1` (racemic) [Example 1-38, N-(5-((2-((5-fluoropyrimidin-2-yl)methyl)-1,4-oxazepan-4-yl)methyl)thiazol-2-yl)acetamide]: the pIC50 was 7.35.
As for `COc1cc(CC2CN(Cc3cnc(NC(C)=O)s3)CCCO2)ccn1` (racemic) [Example 1-40, N-(5-((2-((2-methoxypyridin-4-yl)methyl)-1,4-oxazepan-4-yl)methyl)thiazol-2-yl)acetamide], the pIC50 is 7.00.
In the case of `CC(=O)Nc1ncc(CN2CCOCC(Cc3cc(C)nc(C)c3)C2)s1` (racemic) [Example 1-42, N-(5-((6-((2,6-dimethylpyridin-4-yl)methyl)-1,4-oxazepan-4-yl)methyl)thiazol-2-yl)acetamide] it was 7.72; in that of `CC(=O)Nc1ncc(CN2CCOCC(Cc3ncc(F)cn3)C2)s1` (racemic) [Example 1-44, N-(5-((6-((5-fluoropyrimidin-2-yl)methyl)-1,4-oxazepan-4-yl)methyl)thiazol-2-yl)acetamide], 7.49; in that of `COc1cc(CC2COCCN(Cc3cnc(NC(C)=O)s3)C2)ccn1` (racemic) [Example 1-46, N-(5-((6-((2-methoxypyridin-4-yl)methyl)-1,4-oxazepan-4-yl)methyl)thiazol-2-yl)acetamide], 7.38.
In the case of `CC(=O)Nc1ncc(C(C)N2CCO[C@H](Cc3ncc(F)cn3)C2)s1` (single isomer, unassigned) [Example 1-23 Peak 1] it was 7.72; in that of `CC(=O)Nc1ncc(C(C)N2CCO[C@H](Cc3ncc(F)cn3)C2)s1` (single isomer, unassigned) [Example 1-23 Peak 2], 6.44; in that of `CC(=O)Nc1ncc(CN2CCOC(C(C)c3ncc(F)cn3)C2)s1` (single isomer, unassigned) [Example 1-25 Peak 1], 8.28.
Consider `CC(=O)Nc1ncc(CN2CCOC(C(C)c3ncc(F)cn3)C2)s1` (single isomer, unassigned) [Example 1-25 Peak 2], for which the pIC50 was 7.14.
For `CC(=O)Nc1ncc(CN2CCOC(C(C)c3ncc(F)cn3)C2)s1` (single isomer, unassigned) [Example 1-25 Peak 3], the pIC50 is 6.80.
Turning to `CC(=O)Nc1ncc(CN2CCOC(C(C)c3ncc(F)cn3)C2)s1` (single isomer, unassigned) [Example 1-25 Peak 4], the pIC50 was 5.89.
For the molecule `CC(=O)Nc1ncc(CN2CC(C)OC(Cc3ncc(F)cn3)C2)s1` (single isomer, unassigned) [Example 1-35 Peak 1], the pIC50 was 6.25.
For the molecule `CC(=O)Nc1ncc(CN2CCCOC(Cc3cc(C)nc(C)c3)C2)s1` (single isomer, unassigned) [Example 1-37 Peak 1], the pIC50 was 7.51.
With `CC(=O)Nc1ncc(CN2CCCOC(Cc3cc(C)nc(C)c3)C2)s1` (single isomer, unassigned) [Example 1-37 Peak 2], the pIC50 is 6.96.
With `CC(=O)Nc1ncc(CN2CCCOC(Cc3ncc(F)cn3)C2)s1` (single isomer, unassigned) [Example 1-39 Peak 1], the pIC50 is 7.70.
The same measure for `CC(=O)Nc1ncc(CN2CCCOC(Cc3ncc(F)cn3)C2)s1` (single isomer, unassigned) [Example 1-39 Peak 2]: 6.12; for `COc1cc(CC2CN(Cc3cnc(NC(C)=O)s3)CCCO2)ccn1` (single isomer, unassigned) [Example 1-41 Peak 1]: 7.41.
Regarding `COc1cc(CC2CN(Cc3cnc(NC(C)=O)s3)CCCO2)ccn1` (single isomer, unassigned) [Example 1-41 Peak 2], the pIC50 was 6.57.
Regarding `CC(=O)Nc1ncc(CN2CCOCC(Cc3cc(C)nc(C)c3)C2)s1` (single isomer, unassigned) [Example 1-43 Peak 1], the pIC50 was 7.72.
`CC(=O)Nc1ncc(CN2CCOCC(Cc3cc(C)nc(C)c3)C2)s1` (single isomer, unassigned) [Example 1-43 Peak 2]: the pIC50 was 7.42.
The same measure for `CC(=O)Nc1ncc(CN2CCOCC(Cc3ncc(F)cn3)C2)s1` (single isomer, unassigned) [Example 1-45 Peak 1]: 5.80; for `CC(=O)Nc1ncc(CN2CCOCC(Cc3ncc(F)cn3)C2)s1` (single isomer, unassigned) [Example 1-45 Peak 2]: 7.85; for `COc1cc(CC2COCCN(Cc3cnc(NC(C)=O)s3)C2)ccn1` (single isomer, unassigned) [Example 1-47 Peak 1]: 6.00.
Regarding `COc1cc(CC2COCCN(Cc3cnc(NC(C)=O)s3)C2)ccn1` (single isomer, unassigned) [Example 1-47 Peak 2], the pIC50 was 7.77.
For `CC(=O)Nc1ncc(CN2CCNC(Cc3ncc(F)cn3)C2)s1` (single isomer, unassigned) [Example 2-20 Peak 1], the pIC50 was 6.25.
Consider `CC(=O)Nc1ncc(CN2CCNC(Cc3ncc(F)cn3)C2)s1` (single isomer, unassigned) [Example 2-20 Peak 2], for which the pIC50 was under 4.70.
As to `COc1cc(CC2CN(Cc3cnc(NC(C)=O)s3)CCN2)ccn1` (single isomer, unassigned) [Example 2-22 Peak 1], the pIC50 was 4.74.
The same measure for `COc1cc(CC2CN(Cc3cnc(NC(C)=O)s3)CCN2)ccn1` (single isomer, unassigned) [Example 2-22 Peak 2]: 6.07.
`COc1cc(CC2CN(Cc3cnc(NC(C)=O)s3)CCN2)ccc1F` (single isomer, unassigned) [Example 4-6 Peak 1]: the pIC50 is 4.96.
As to `COc1cc(CC2CN(Cc3cnc(NC(C)=O)s3)CCN2)ccc1F` (single isomer, unassigned) [Example 4-6 Peak 2], the pIC50 is 5.39.
For `CC(=O)Nc1ncc(CN2CCNC(Cc3ccnc(C)c3)C2)s1` (single isomer, unassigned) [Example 4-8 Peak 1], the pIC50 was 5.17.
The same measure for `CC(=O)Nc1ncc(CN2CCNC(Cc3ccnc(C)c3)C2)s1` (single isomer, unassigned) [Example 4-8 Peak 2]: 6.31.
In the case of `COc1cc(CC2CN(Cc3cnc(NC(C)=O)s3)CCN2C)ccn1` (single isomer, unassigned) [Example 4-12 Peak 1], the pIC50 was 6.02.
For the molecule `COc1cc(CC2CN(Cc3cnc(NC(C)=O)s3)CCN2C)ccn1` (single isomer, unassigned) [Example 4-12 Peak 2], the pIC50 was under 4.70.
In the case of `CC(=O)Nc1ncc(CN2CCNC(Cc3ccc(C)nc3)C2)s1` (single isomer, unassigned) [Example 4-14 Peak 1], the pIC50 was under 4.70.
Consider `CC(=O)Nc1ncc(CN2CCNC(Cc3ccc(C)nc3)C2)s1` (single isomer, unassigned) [Example 4-14 Peak 2], for which the pIC50 is 5.36.
`COc1nccc(CC2CN(Cc3cnc(NC(C)=O)s3)CCN2)c1F` (single isomer, unassigned) [Example 4-18 Peak 1]: the pIC50 is 4.85.
Consider `COc1nccc(CC2CN(Cc3cnc(NC(C)=O)s3)CCN2)c1F` (single isomer, unassigned) [Example 4-18 Peak 2], for which the pIC50 is 5.82.
Regarding `CC(=O)Nc1ncc(CN2CCO[C@H](Cc3ncc(F)cn3)C2)s1` [Example 1-1, (R)—N-(5-((2-((5-fluoropyrimidin-2-yl)methyl)morpholino)methyl)thiazol-2-yl)acetamide], the pIC50 was 7.80.
The same measure for `CC(=O)Nc1ncc(CN2CCO[C@@H](Cc3ncc(F)cn3)C2)s1` [Example 1-2, (S)—N-(5-((2-((5-fluoropyrimidin-2-yl)methyl)morpholino)methyl)thiazol-2-yl)acetamide]: 5.36.
